From patent US20160339008A1, “METHODS OF TREATING OR PREVENTING VASCULAR DISEASES OF THE RETINA” (Children's Medical Center Corporation, priority 2013, published 2016)
Blank lines part the entries; values can stand above or below the compound they belong to.

How the values were obtained:
[1] = system: human retinal microvascular endothelial cells (HRMEC); assay: HRMEC tubule formation; assay type: cell-based
[2] = system: neovascularization (NV) in oxygen-induced retinopathy; assay: Oxygen-induced retinopathy (OIR) mouse model, quantification of retinal neovascularization; assay type: in vivo; conditions: for magnitude of the extent of reduction in NV, Cyp2C8 Tg mice compared to WT mice: 10 mg/kg/day GV, mice fed ω3 (n3) or ω6 (n6)
Procedure: Mouse model of OIR is described^13. C57BL/6J mice were analyzed by immunohistochemistry, real-time PCR, western blot, blood smear and LC/MS/MS oxylipid analysis. Mothers of Cyp and sEH mutant mice were fed ω3PUFA or ω6PUFA-enriched diets in OIR followed by analysis of retina, plasma and aortic ring sprouting.
The mouse model of oxygen-induced retinopathy has been previously described (Smith et al. Invest Ophthalmol Vis Sci 35: 101-111). To induce vessel loss, mice were exposed to 75% oxygen from postnatal day 7 (P7) to P12. The central retinal vessel obliteration induced by hyperoxic exposure will trigger an excessive angiogenic response that causes neovascularization. Mice were given lethal doses of Avertin (Sigma) intraperitoneally at P17 when the neovascular response is greatest.
For dietary experiments, polyunsaturated fatty acids (PUFAs), arachidonic acid (AA) and docosahexaenoic acid (DHA) supplements under the trade names ROPUFA, ARASCO and DHASCO, respectively, were obtained from DSM Nutritional Products (dsmnutritionalproducts.com) and were integrated into the rodent feed at Research Diets Incorporated (researchdiets.com/). […] Upon delivery, dams were fed a defined rodent diet with 10% (w/w) safflower oil containing either 2% ω-6 PUFAs (AA) and no ω-3 PUFAs (DHA and EPA), or 2% ω-3 PUFAs and no ω-6 PUFAs.
OIR eyes were enucleated and fixed in 4% paraformaldehyde for 1 hour at 4° C. Retinas were dissected and stained overnight at 23° C. with Alexa Fluor 594 fluoresceinated Griffonia Bandereiraea Simplicifolia Isolectin B4 (Molecular Probes, Cat. 121413, 1:100 dilution) in 1 mM CaCl2 in PBS. Following 2 hours of washes, retinas were whole-mounted onto Superfrost/Plus microscope slides (Fisher, Cat. 12-550-15) with the photoreceptor side up and embedded in SlowFade Antifade reagent (Invitrogen, Cat. S2828). For quantification of retinal neovascularization, 20 images of each whole-mounted retina were obtained at 5× magnifications on a Zeiss AxioObserver.Z1 microscope and merged to form one image with AxioVision 4.6.3.0 software. Vaso-obliteration was quantified using Adobe Photoshop and neovascularization was analysed with the SWIFT_NV method on ImageJ 1.46r (NIH) software, as described previously (Stahl et al. Angiogenesis 12: 297-301).

[3] = system: human retinal microvascular endothelial cells (HRMEC); assay: HRMEC migration; assay type: cell-based; conditions: for rescue of the inhibition of HRMEC migration by FA: with FA
[4] = system: aortic rings (macrovascular sprouting); assay: Aortic ring sprouting assay (ex vivo aortic ring explants); assay type: cell-based, mouse
Procedure: Tie2-CYP2C8Tg, Tie2-sEHTg, sEH−/− mice and littermate wild-type mice were anesthetized and perfused intracardiacly with warm PBS. Aortae were dissected free, cut into 1-mm-thick rings and embedded in 304, of growth factor-reduced Matrigel™ (BD Biosciences, Cat. 354230) in 24-well tissue culture plates. 5004, CSC complete medium (Cell Systems, Cat. 420-500) activated with growth factor Boost, was then added to each well and incubated at 37° C. with 5% CO2 for 48 hours before any treatment. Medium contained 5 units/mL of Penicillin/Streptomycin (GIBCO, Cat. 15142) to prevent contamination.
DHA (Cayman Chemical, Cat. 90310, 30 μM) and AA (Cayman Chemical, Cat. 90010, 30 μM) were introduced to the culture medium 48 hours after seeding of aortic ring from Tie2-CYP2C8Tg and littermate wild-type control. 17(18)-EpETE (EEQ) (Cayman Chemical, Cat. 50861, 1 μM), 19(20)-EpDPE (EDP) (Cayman Chemical, Cat. 10175, 1 μM) and 14,15-EE-8(Z)-E (EET) (Cayman Chemical, Cat. 10010486, 1 μM) were administered to the culture medium 48 hours after seeding of aortic ring from Tie2-sEHTg, sEH−/− and their wild-type littermate controls. Medium was changed every 48 hours for all groups. Phase contrast photos of individual explants were taken 168 hours after plating (120 hours after treatment) using a ZEISS Axio Oberver.Z1 microscope. The areas of macrovascular sprouting were quantified with computer software ImageJ 1.46r (National Institute of Health). A semi-automated macro plugin for quantification of vessel sprouts is available from the authors.

SMILES: CC(C)OC(=O)C(C)(C)Oc1ccc(C(=O)c2ccc(Cl)cc2)cc1 [fenofibrate]
HRMEC tubule formation [1]: inhibit HRMEC tubule formation
magnitude of the extent of reduction in NV, Cyp2C8 Tg mice compared to WT mice [2]: enhanced in mice that overexpressed CYP2C8
neovascularization ([2]; Cyp2C8 overexpressing transgenic (Tg) mice, ω3 and ω6 LCPUFA feed, low dose): decreased neovascularization
neovascularization (NV) ([2]; JAX (WT) mice, normal feed, high dose 100 mg/kg/day GV): significant reduction in neovascularization
neovascularization (NV) ([2]; JAX (WT) mice, normal feed, low dose 10 mg/kg/day GV): significant reduction in neovascularization
neovascularization (NV) ([2]; PPARα knockout mice, normal feed, high dose 100 mg/kg/day GV): significant reduction in neovascularization
neovascularization (NV) ([2]; PPARα knockout mice, normal feed, low dose 10 mg/kg/day GV): significant reduction in neovascularization
neovascularization ([2]; WT mice, ω3 and ω6 LCPUFA feed, low dose): decreased neovascularization

SMILES: CCC(=O)NC[C@H](Cc1ccc(OCCc2nc(-c3ccccc3)oc2C)cc1)N/C(C)=C\C(=O)c1ccc(C(F)(F)F)cc1 [GW6471]
impact upon the effect of fenofibrate on HRMEC migration ([3]; with FA/fenofibrate): no impact
impact upon the effect of fenofibrate on HRMEC tubule formation ([1]; with fenofibrate): no impact
impact upon the effect of FA on aortic ring sprouting ([4]; rings from WT and Cyp2C8 Tg mice, with FA): no impact

SMILES: CCCCCC1OC1C/C=C\C/C=C\C/C=C\CCCC(=O)O (stereo not shown) [14,15-EET, 14,15-EE-8(Z)-E]
aortic ring sprouting compared between WT, Tie2-sEH-Tg and sEH−/− mice ([4]; 1 μM): similar

SMILES: CCC1OC1C/C=C\C/C=C\C/C=C\C/C=C\C/C=C\CCC(=O)O (stereo not shown) [19,20-EDP, 19(20)-EpDPE]
rescue of the inhibition of HRMEC migration by FA [3]: partially rescuing
rescue of the inhibition of HRMEC tubule formation by FA ([1]; with FA): partially rescued
less sprouting, treated Tie2-sEH-Tg aortic ring versus WT ([4]; 1 μM): 50%
rescue of FA inhibition of aortic ring sprouting ([4]; rings from WT & Cyp2C8 Tg mice, with FA): partially rescued

SMILES: CCCCC/C=C\C/C=C\C/C=C\C/C=C\CCCC(=O)O [AA, arachidonic acid]
potentiation of aortic sprouting, AA vs. DHA ([4]; 30 μM, Tie2-CYP2C8-Tg rings): abolished
aortic sprouting, AA vs. DHA ([4]; 30 μM, WT rings): potentiated aortic sprouting

SMILES: CCC1OC1C/C=C\C/C=C\C/C=C\C/C=C\CCCC(=O)O (stereo not shown) [17,18-EEQ, 17(18)-EpETE]
rescue of the inhibition of HRMEC migration by FA [3]: partially rescuing
aortic ring sprouting compared between WT, Tie2-sEH-Tg and sEH−/− mice ([4]; 1 μM): no difference

SMILES: CC(C)(O)c1ccccc1CC[C@@H](SCC1(CC(=O)O)CC1)c1cccc(/C=C/c2ccc3ccc(Cl)cc3n2)c1 [montelukast]
HRMEC migration [3]: inhibited
HRMEC tubule formation [1]: clear dose-response curves
magnitude of the extent of reduction in NV, Cyp2C8 Tg mice compared to WT mice [2]: enhanced in mice that overexpressed CYP2C8
neovascularization ([2]; JAX (WT) mice, normal feed, dose not given): reduced in a statistically significant manner

aortic sprouting, Tie2-CYP2C8-Tg versus WT ([4]; DHA treatment 30 μM): increased sprouting
SMILES: CC/C=C\C/C=C\C/C=C\C/C=C\C/C=C\C/C=C\CCC(=O)O [DHA, docosahexaenoic acid]
